# System: human C3A liver cells
# Assay: Microarray differential gene expression in human C3A liver cell cultures treated with steroids
# Format: cell-based
# Source text: Incyte clones represent template sequences derived from the LWESEQ GOLD assembled human sequence database (Incyte Genomics). In cases where more than one clone was available for a particular template, the 5′-most clone in the template was used on the microarray. The HUMAN GENOME GEM series 1-4 microarrays (Incyte Genomics) contain 28,626 array elements which represent 10,068 annotated clusters and 18,558 unannotated clusters. For the UNIGEM series microarrays (Incyte Genomics), Incyte clones were mapped to non-redundant Unigene clusters (Unigene database (build 46), NCBI; Shuler (1997) J Mol Med 75:694-698), and the 5′ clone with the strongest BLAST alignment (at least 90% identity and 100 bp overlap) was chosen, verified, and used in the construction of the microarray. The UNIGEM V microarray (Incyte Genomics) contains 7075 array elements which represent 4610 annotated genes and 2,184 unannotated clusters.
# To construct microarrays, cDNAs were amplified from bacterial cells using primers complementary to vector sequences flanking the cDNA insert. […] Amplified cDNAs were then purified using […]-400 columns (APB). Purified cDNAs were immobilized on polymer-coated glass slides. Glass microscope slides (Corning, Corning N.Y.) were cleaned by ultrasound in 0.1% SDS and acetone, with extensive distilled water washes between and after treatments. Glass slides were etched in 4% hydrofluoric acid (VWR Scientific Products, West Chester Pa.), washed thoroughly in distilled water, and coated with 0.05% aminopropyl silane (Sigma Aldrich) in 95% ethanol. Coated slides were cured in a 110° C. oven. cDNAs were applied to the coated glass substrate using a procedure described in U.S. Pat. No. 5,807,522. One microliter of the cDNA at an average concentration of 100 ng/μl was loaded into the open capillary printing element by a high-speed robotic apparatus which then deposited about 5 nl of cDNA per slide.
# Microarrays were UV-crosslinked using a […] UV-crosslinker (Stratagene), and then washed at room temperature once in 0.2% SDS and three times in distilled water. Non-specific binding sites were blocked by incubation of microarrays in 0.2% casein in phosphate buffered saline (Tropix, Bedford Mich.) for 30 minutes at 60° C. followed by washes in 0.2% SDS and distilled water as before.
# In all cases, mRNA from untreated early confluent C3A cells were prepared in parallel as described below.
# Cells were harvested and lysed in 1 ml of TRIZOL reagent (5×10^6 cells/ml; Life Technologies). Lysates were vortexed thoroughly, incubated at room temperature for 2-3 minutes, and extracted with 0.5 ml chloroform. The extract was mixed, incubated at room temperature for 5 minutes, and centrifuged at 15,000 rpm for 15 minutes at 4° C. The aqueous layer was collected, and an equal volume of isopropanol was added. Samples were mixed, incubated at room temperature for 10 minutes, and centrifuged at 15,000 rpm for 20 minutes at 4° C. The supernatant was removed, and the RNA pellet was washed with 1 ml of 70% ethanol, centrifuged at 15,000 rpm at 4° C., and resuspended in RNAse-free water. The concentration of the RNA was determined by measuring the optical density at 260 nm.
# Poly(A) RNA was prepared using an OLIGOTEX mRNA kit (Qiagen) with the following modifications: OLIGOTEX beads were washed in tubes instead of on spin columns, resuspended in elution buffer, and then loaded onto spin columns to recover mRNA. To obtain maximum yield, the mRNA was eluted twice.
# Each poly(A) RNA sample was reverse transcribed using MMLV reverse-transcriptase, 0.05 pg/μl oligo-d(T) primer (21mer), 1× first strand buffer, 0.03 units/ul RNAse inhibitor, 500 uM dATP, 500 uM dGTP, 500 uM dTTP, 40 uM dCTP, and 40 uM either dCTP-Cy3 or dCTP-Cy5 (APB).
compound,measurement,setting,value
C[C@@H]1C[C@H]2[C@@H]3CCC4=CC(=O)C=C[C@]4(C)[C@@]3(F)[C@@H](O)C[C@]2(C)[C@@]1(O)C(=O)CO [dexamethasone],Ave DE [log2] (C3A treated with steroid),Clone ID 167081,−1.10 log2
same,Ave DE [log2] (C3A treated with steroid),Clone ID 220378,0.39 log2
same,Ave DE [log2] (C3A treated with steroid),Clone ID 380006,−0.98 log2
same,Ave DE [log2] (C3A treated with steroid),Clone ID 419492,1.08 log2
same,Ave DE [log2] (C3A treated with steroid),Clone ID 494905,0.75 log2
same,Ave DE [log2] (C3A treated with steroid),Clone ID 508943,−1.26 log2
same,Ave DE [log2] (C3A treated with steroid),Clone ID 869702,0.55 log2
same,Ave DE [log2] (C3A treated with steroid),Clone ID 1259841,0.84 log2
same,Ave DE [log2] (C3A treated with steroid),Clone ID 1275616,0.97 log2
same,Ave DE [log2] (C3A treated with steroid),Clone ID 1323616,0.89 log2
same,Ave DE [log2] (C3A treated with steroid),Clone ID 1500810,−0.70 log2
same,Ave DE [log2] (C3A treated with steroid),Clone ID 1501410,−1.16 log2
same,Ave DE [log2] (C3A treated with steroid),Clone ID 1573840,0.86 log2
same,Ave DE [log2] (C3A treated with steroid),Clone ID 1823946,−1.20 log2
same,Ave DE [log2] (C3A treated with steroid),Clone ID 1857664,−0.71 log2
same,Ave DE [log2] (C3A treated with steroid),Clone ID 1876829,−0.94 log2
same,Ave DE [log2] (C3A treated with steroid),Clone ID 1930847,−0.67 log2
same,Ave DE [log2] (C3A treated with steroid),Clone ID 1946155,0.93 log2
same,Ave DE [log2] (C3A treated with steroid),Clone ID 2025128,0.90 log2
same,Ave DE [log2] (C3A treated with steroid),Clone ID 2086783,−1.18 log2
same,Ave DE [log2] (C3A treated with steroid),Clone ID 2088104,−1.20 log2
same,Ave DE [log2] (C3A treated with steroid),Clone ID 2095329,−1.37 log2
same,Ave DE [log2] (C3A treated with steroid),Clone ID 2173002,0.75 log2
same,Ave DE [log2] (C3A treated with steroid),Clone ID 2253102,−1.20 log2
same,Ave DE [log2] (C3A treated with steroid),Clone ID 2269058,−1.15 log2
same,Ave DE [log2] (C3A treated with steroid),Clone ID 2285181,−1.27 log2
same,Ave DE [log2] (C3A treated with steroid),Clone ID 2285521,−1.22 log2
same,Ave DE [log2] (C3A treated with steroid),Clone ID 2287703,−1.24 log2
same,Ave DE [log2] (C3A treated with steroid),Clone ID 2287724,−1.16 log2
same,Ave DE [log2] (C3A treated with steroid),Clone ID 2293496,−0.82 log2
same,Ave DE [log2] (C3A treated with steroid),Clone ID 2294968,−0.94 log2
same,Ave DE [log2] (C3A treated with steroid),Clone ID 2655279,−1.21 log2
same,Ave DE [log2] (C3A treated with steroid),Clone ID 2698777,−1.48 log2
same,Ave DE [log2] (C3A treated with steroid),Clone ID 2703282,−0.86 log2
same,Ave DE [log2] (C3A treated with steroid),Clone ID 2947188,−0.98 log2
same,Ave DE [log2] (C3A treated with steroid),Clone ID 3057272,0.98 log2
same,Ave DE [log2] (C3A treated with steroid),Clone ID 3115505,−1.10 log2
same,Ave DE [log2] (C3A treated with steroid),Clone ID 3139631,−0.82 log2
same,Ave DE [log2] (C3A treated with steroid),Clone ID 3973887,−1.06 log2
same,Ave DE [log2] (C3A treated with steroid),Clone ID 4089291,−0.77 log2
same,Ave DE [log2] (C3A treated with steroid),Clone ID 4284270,−0.88 log2
same,Ave DE [log2] (C3A treated with steroid),Clone ID 4377432,0.87 log2
same,Ave DE [log2] (C3A treated with steroid),Clone ID 4884214,−0.77 log2
same,Ave DE [log2] (C3A treated with steroid),Clone ID 5091002,−1.42 log2
same,Ave DE [log2] (C3A treated with steroid),Clone ID 5206821,0.17 log2
same,Ave DE [log2] (C3A treated with steroid),Clone ID 5426158,−1.03 log2
C[C@@H]1C[C@H]2[C@@H]3CCC4=CC(=O)C=C[C@]4(C)[C@@]3(F)[C@@H](O)C[C@]2(C)[C@@]1(O)C(=O)CO [dexomethasone],Ave DE [log2] (C3A treated with steroid),Clone ID 2947188,−0.98 log2
C#C[C@]1(O)CC[C@H]2[C@@H]3CCC4=Cc5oncc5C[C@]4(C)[C@H]3CC[C@@]21C [donozol],Ave DE [log2] (C3A treated with steroid),Clone ID 2407620,−0.26 log2
same,Ave DE [log2] (C3A treated with steroid),Clone ID 3474091,−0.29 log2
C[C@]12C=CC(=O)C=C1CC[C@@H]1[C@@H]2C(=O)C[C@@]2(C)[C@H]1CC[C@]2(O)C(=O)CO [prednisone],Ave DE [log2] (C3A treated with steroid),Clone ID 998615,0.91 log2
same,Ave DE [log2] (C3A treated with steroid),Clone ID 1329625,0.42 log2
same,Ave DE [log2] (C3A treated with steroid),Clone ID 1401312,−0.82 log2
same,Ave DE [log2] (C3A treated with steroid),Clone ID 1496011,0.51 log2
same,Ave DE [log2] (C3A treated with steroid),Clone ID 1611629,0.94 log2
same,Ave DE [log2] (C3A treated with steroid),Clone ID 1679595,0.99 log2
same,Ave DE [log2] (C3A treated with steroid),Clone ID 1716458,1.03 log2
same,Ave DE [log2] (C3A treated with steroid),Clone ID 1740179,0.86 log2
same,Ave DE [log2] (C3A treated with steroid),Clone ID 1946155,0.92 log2
same,Ave DE [log2] (C3A treated with steroid),Clone ID 1951845,0.79 log2
same,Ave DE [log2] (C3A treated with steroid),Clone ID 2086783,−1.13 log2
same,Ave DE [log2] (C3A treated with steroid),Clone ID 2088104,−1.15 log2
same,Ave DE [log2] (C3A treated with steroid),Clone ID 2095329,−1.21 log2
same,Ave DE [log2] (C3A treated with steroid),Clone ID 2227273,1.01 log2
same,Ave DE [log2] (C3A treated with steroid),Clone ID 2252884,−1.03 log2
same,Ave DE [log2] (C3A treated with steroid),Clone ID 2253102,−1.13 log2
same,Ave DE [log2] (C3A treated with steroid),Clone ID 2269058,−1.06 log2
same,Ave DE [log2] (C3A treated with steroid),Clone ID 2285521,−1.09 log2
same,Ave DE [log2] (C3A treated with steroid),Clone ID 2287703,−1.07 log2
same,Ave DE [log2] (C3A treated with steroid),Clone ID 2430165,0.23 log2
same,Ave DE [log2] (C3A treated with steroid),Clone ID 2607834,0.29 log2
same,Ave DE [log2] (C3A treated with steroid),Clone ID 2698777,−1.25 log2
same,Ave DE [log2] (C3A treated with steroid),Clone ID 2734007,0.88 log2
same,Ave DE [log2] (C3A treated with steroid),Clone ID 2908212,0.42 log2
same,Ave DE [log2] (C3A treated with steroid),Clone ID 3960194,1.01 log2
same,Ave DE [log2] (C3A treated with steroid),Clone ID 4252872,0.77 log2
same,Ave DE [log2] (C3A treated with steroid),Clone ID 4543123,1.27 log2
same,Ave DE [log2] (C3A treated with steroid),Clone ID 4630674,0.86 log2
same,Ave DE [log2] (C3A treated with steroid),Clone ID 4894508,−1.03 log2
same,Ave DE [log2] (C3A treated with steroid),Clone ID 5102951,0.85 log2
same,Ave DE [log2] (C3A treated with steroid),Clone ID 5326983,0.50 log2
same,Ave DE [log2] (C3A treated with steroid),Clone ID 5543385,1.00 log2
CC(=O)[C@H]1CC[C@H]2[C@@H]3CCC4=CC(=O)CC[C@]4(C)[C@H]3CC[C@]12C [progesterone],Ave DE [log2] (C3A treated with steroid),Clone ID 167081,−1.12 log2
same,Ave DE [log2] (C3A treated with steroid),Clone ID 1323327,0.83 log2
same,Ave DE [log2] (C3A treated with steroid),Clone ID 1600180,1.06 log2
same,Ave DE [log2] (C3A treated with steroid),Clone ID 1816768,0.28 log2
same,Ave DE [log2] (C3A treated with steroid),Clone ID 2655279,−1.03 log2
same,Ave DE [log2] (C3A treated with steroid),Clone ID 2753065,0.78 log2
same,Ave DE [log2] (C3A treated with steroid),Clone ID 3408804,−1.16 log2
same,Ave DE [log2] (C3A treated with steroid),Clone ID 3528232,0.99 log2
same,Ave DE [log2] (C3A treated with steroid),Clone ID 3876612,0.26 log2
